System: DYT-TOR1A MEF EVs
Assay: Quantitative LC-MS/MS proteomics of EVs from drug-treated DYT-TOR1A MEF cultures (ritonavir, salubrinal)
Assay type: cell-based, mouse
Parameters: key to RTV Corrective Direction / RTV Corrective Direction, Grwd1 / RTV Corrective Direction, Srrm2 / RTV Corrective Direction, Rbm17 / RTV Corrective Direction, Dcaf8 / RTV Corrective Direction, Edil3 / RTV Corrective Direction, Timp3 / RTV Corrective Direction, Heatr3 / RTV Corrective Direction, Brd4 / RTV Corrective Direction, P3h4 / RTV Corrective Direction, Pacsin3 / RTV Corrective Direction, Naa50 / RTV Corrective Direction, Lpar6 / RTV Corrective Direction, Ndrg1 / RTV Corrective Direction, Kntc1 / RTV Corrective Direction, Cdk11b / RTV Corrective Direction, Sumo1 / RTV Corrective Direction, Lsm4 / RTV Corrective Direction, Hmga2 / RTV Corrective Direction, Cstf1 / RTV Corrective Direction, Tes / RTV Corrective Direction, Sbno1 / RTV Corrective Direction, Unc119b / RTV Corrective Direction, Cfdp1 / RTV Corrective Direction, Sec61b: YES = protein abundance effect opposite to DYT/WT

CC(C)c1nc(CN(C)C(=O)N[C@H](C(=O)N[C@@H](Cc2ccccc2)C[C@H](O)[C@H](Cc2ccccc2)NC(=O)OCc2cncs2)C(C)C)cs1 [ritonavir]
Absolute Cohen's d Sum (Geno + RTV), Brd4 (EV protein Brd4 (Q9ESU6)): 6.97
DYT + RTV/DYT Cohen's d, Brd4 (EV protein Brd4 (Q9ESU6)): 3.33
RTV Corrective Direction, Brd4 (EV protein Brd4 (Q9ESU6), DYT + RTV vs DYT): YES
Absolute Cohen's d Sum (Geno + RTV), Cdk11b (EV protein Cdk11b (P24788)): 6.07
DYT + RTV/DYT Cohen's d, Cdk11b (EV protein Cdk11b (P24788)): 2.84
RTV Corrective Direction, Cdk11b (EV protein Cdk11b (P24788), DYT + RTV vs DYT): YES
Absolute Cohen's d Sum (Geno + RTV), Cfdp1 (EV protein Cfdp1 (O88271)): 4.50
DYT + RTV/DYT Cohen's d, Cfdp1 (EV protein Cfdp1 (O88271)): 1.87
RTV Corrective Direction, Cfdp1 (EV protein Cfdp1 (O88271), DYT + RTV vs DYT): YES
Absolute Cohen's d Sum (Geno + RTV), Cstf1 (EV protein Cstf1 (Q99LC2)): 4.79
DYT + RTV/DYT Cohen's d, Cstf1 (EV protein Cstf1 (Q99LC2)): 1.81
RTV Corrective Direction, Cstf1 (EV protein Cstf1 (Q99LC2), DYT + RTV vs DYT): YES
Absolute Cohen's d Sum (Geno + RTV), Ctdsp1 (EV protein Ctdsp1 (P58466)): 9.37
DYT + RTV/DYT Cohen's d, Ctdsp1 (EV protein Ctdsp1 (P58466)): −0.28
DYT + RTV/DYT Cohen's d, Dcaf8 (EV protein Dcaf8): 3.49
Absolute Cohen's d Sum (Geno + RTV), Dcaf8 (EV protein Dcaf8 (Q8N7N5)): 7.70
RTV Corrective Direction, Dcaf8 (EV protein Dcaf8 (Q8N7N5), DYT + RTV vs DYT): YES
Absolute Cohen's d Sum (Geno + RTV), Dnajc7 (EV protein Dnajc7 (Q9QYI3)): 4.50
DYT + RTV/DYT Cohen's d, Dnajc7 (EV protein Dnajc7 (Q9QYI3)): −0.67
Absolute Cohen's d Sum (Geno + RTV), Drg1 (EV protein Drg1 (P32233)): 4.38
DYT + RTV/DYT Cohen's d, Drg1 (EV protein Drg1 (P32233)): −1.06
Absolute Cohen's d Sum (Geno + RTV), Edil3 (EV protein Edil3 (O35474)): 7.67
DYT + RTV/DYT Cohen's d, Edil3 (EV protein Edil3 (O35474)): 4.51
RTV Corrective Direction, Edil3 (EV protein Edil3 (O35474), DYT + RTV vs DYT): YES
Absolute Cohen's d Sum (Geno + RTV), Grwd1 (EV protein Grwd1 (Q810D6)): 8.06
DYT + RTV/DYT Cohen's d, Grwd1 (EV protein Grwd1 (Q810D6)): 2.65
RTV Corrective Direction, Grwd1 (EV protein Grwd1 (Q810D6), DYT + RTV vs DYT): YES
Absolute Cohen's d Sum (Geno + RTV), Heatr3 (EV protein Heatr3 (Q8BQM4)): 7.08
DYT + RTV/DYT Cohen's d, Heatr3 (EV protein Heatr3 (Q8BQM4)): 3.09
RTV Corrective Direction, Heatr3 (EV protein Heatr3 (Q8BQM4), DYT + RTV vs DYT): YES
Absolute Cohen's d Sum (Geno + RTV), Hmga2 (EV protein Hmga2 (P52927)): 5.34
DYT + RTV/DYT Cohen's d, Hmga2 (EV protein Hmga2 (P52927)): 1.97
RTV Corrective Direction, Hmga2 (EV protein Hmga2 (P52927), DYT + RTV vs DYT): YES
Absolute Cohen's d Sum (Geno + RTV), Kntc1 (EV protein Kntc1 (Q8C3Y4)): 6.09
DYT + RTV/DYT Cohen's d, Kntc1 (EV protein Kntc1 (Q8C3Y4)): 2.48
RTV Corrective Direction, Kntc1 (EV protein Kntc1 (Q8C3Y4), DYT + RTV vs DYT): YES
Absolute Cohen's d Sum (Geno + RTV), Lpar6 (EV protein Lpar6 (Q8BMC0)): 6.22
DYT + RTV/DYT Cohen's d, Lpar6 (EV protein Lpar6 (Q8BMC0)): −3.03
RTV Corrective Direction, Lpar6 (EV protein Lpar6 (Q8BMC0), DYT + RTV vs DYT): YES
Absolute Cohen's d Sum (Geno + RTV), Lsm4 (EV protein Lsm4 (Q9QXA5)): 5.40
DYT + RTV/DYT Cohen's d, Lsm4 (EV protein Lsm4 (Q9QXA5)): 2.49
RTV Corrective Direction, Lsm4 (EV protein Lsm4 (Q9QXA5), DYT + RTV vs DYT): YES
Absolute Cohen's d Sum (Geno + RTV), Maea (EV protein Maea (Q4VC33)): 3.96
DYT + RTV/DYT Cohen's d, Maea (EV protein Maea (Q4VC33)): −0.37
Absolute Cohen's d Sum (Geno + RTV), Myo1e (EV protein Myo1e (E9Q634)): 5.88
DYT + RTV/DYT Cohen's d, Myo1e (EV protein Myo1e (E9Q634)): −1.46
Absolute Cohen's d Sum (Geno + RTV), Naa50 (EV protein Naa50 (Q6PGB6)): 6.3
DYT + RTV/DYT Cohen's d, Naa50 (EV protein Naa50 (Q6PGB6)): 1.96
RTV Corrective Direction, Naa50 (EV protein Naa50 (Q6PGB6), DYT + RTV vs DYT): YES
Absolute Cohen's d Sum (Geno + RTV), Ndrg1 (EV protein Ndrg1 (Q62433)): 6.19
DYT + RTV/DYT Cohen's d, Ndrg1 (EV protein Ndrg1 (Q62433)): 2.70
RTV Corrective Direction, Ndrg1 (EV protein Ndrg1 (Q62433), DYT + RTV vs DYT): YES
Absolute Cohen's d Sum (Geno + RTV), P3h4 (EV protein P3h4 (Q8K2B0)): 6.88
DYT + RTV/DYT Cohen's d, P3h4 (EV protein P3h4 (Q8K2B0)): 1.62
RTV Corrective Direction, P3h4 (EV protein P3h4 (Q8K2B0), DYT + RTV vs DYT): YES
Absolute Cohen's d Sum (Geno + RTV), Pacsin3 (EV protein Pacsin3 (Q99JB8)): 6.45
DYT + RTV/DYT Cohen's d, Pacsin3 (EV protein Pacsin3 (Q99JB8)): −3.41
RTV Corrective Direction, Pacsin3 (EV protein Pacsin3 (Q99JB8), DYT + RTV vs DYT): YES
Absolute Cohen's d Sum (Geno + RTV), Pcdh19 (EV protein Pcdh19 (Q80TF3)): 7.74
DYT + RTV/DYT Cohen's d, Pcdh19 (EV protein Pcdh19 (Q80TF3)): −0.30
Absolute Cohen's d Sum (Geno + RTV), Plpp3 (EV protein Plpp3 (Q99JY8)): 4.97
DYT + RTV/DYT Cohen's d, Plpp3 (EV protein Plpp3 (Q99JY8)): 0.51
Absolute Cohen's d Sum (Geno + RTV), Rbm17 (EV protein Rbm17 (Q8JZX4)): 7.77
DYT + RTV/DYT Cohen's d, Rbm17 (EV protein Rbm17 (Q8JZX4)): 2.38
RTV Corrective Direction, Rbm17 (EV protein Rbm17 (Q8JZX4), DYT + RTV vs DYT): YES
Absolute Cohen's d Sum (Geno + RTV), Sbno1 (EV protein Sbno1 (Q689Z5)): 4.67
DYT + RTV/DYT Cohen's d, Sbno1 (EV protein Sbno1 (Q689Z5)): 1.29
RTV Corrective Direction, Sbno1 (EV protein Sbno1 (Q689Z5), DYT + RTV vs DYT): YES
Absolute Cohen's d Sum (Geno + RTV), Sec61b (EV protein Sec61b (Q9CQS8)): 3.57
DYT + RTV/DYT Cohen's d, Sec61b (EV protein Sec61b (Q9CQS8)): 0.27
RTV Corrective Direction, Sec61b (EV protein Sec61b (Q9CQS8), DYT + RTV vs DYT): YES
Absolute Cohen's d Sum (Geno + RTV), Sh3bp4 (EV protein Sh3bp4 (Q921I6)): 4.75
DYT + RTV/DYT Cohen's d, Sh3bp4 (EV protein Sh3bp4 (Q921I6)): −0.91
Absolute Cohen's d Sum (Geno + RTV), Srrm2 (EV protein Srrm2 (Q8BTI8)): 7.87
DYT + RTV/DYT Cohen's d, Srrm2 (EV protein Srrm2 (Q8BTI8)): 3.51
RTV Corrective Direction, Srrm2 (EV protein Srrm2 (Q8BTI8), DYT + RTV vs DYT): YES
Absolute Cohen's d Sum (Geno + RTV), Sumo1 (EV protein Sumo1 (P63166)): 5.99
DYT + RTV/DYT Cohen's d, Sumo1 (EV protein Sumo1 (P63166)): 2.28
RTV Corrective Direction, Sumo1 (EV protein Sumo1 (P63166), DYT + RTV vs DYT): YES
Absolute Cohen's d Sum (Geno + RTV), Tes (EV protein Tes (P47226)): 4.69
DYT + RTV/DYT Cohen's d, Tes (EV protein Tes (P47226)): 0.20
RTV Corrective Direction, Tes (EV protein Tes (P47226), DYT + RTV vs DYT): YES
Absolute Cohen's d Sum (Geno + RTV), Timp3 (EV protein Timp3 (P39876)): 7.42
DYT + RTV/DYT Cohen's d, Timp3 (EV protein Timp3 (P39876)): −2.93
RTV Corrective Direction, Timp3 (EV protein Timp3 (P39876), DYT + RTV vs DYT): YES
Absolute Cohen's d Sum (Geno + RTV), Tspan7 (EV protein Tspan7 (Q62283)): 7.37
DYT + RTV/DYT Cohen's d, Tspan7 (EV protein Tspan7 (Q62283)): −2.89
Absolute Cohen's d Sum (Geno + RTV), Unc119b (EV protein Unc119b (Q8C4B4)): 4.63
DYT + RTV/DYT Cohen's d, Unc119b (EV protein Unc119b (Q8C4B4)): 2.22
RTV Corrective Direction, Unc119b (EV protein Unc119b (Q8C4B4), DYT + RTV vs DYT): YES
Pearson's r between genotype and ritonavir effects on EV protein abundance (entire proteome, n=1974): −0.74
Pearson's r between genotype and ritonavir effects on EV protein abundance (putative DYT biomarker subset, n=363): −0.78
additional human plasma EV protein homologs modulated in a corrective direction in mouse DYT1 EV experiment (MEF), not reaching significance (p<0.05) (ritonavir): 687
all EV proteins with log 2 fold change>0 (ritonavir 20 μM, 24 h): 1372/1974
number of significant hits among 363 proteins relative to chance (α=0.05) (ritonavir 20 μM, 24 h): 12 times
overall effect on the DYT-TOR1A MEF EV proteome (ritonavir 20 μM, 24 h): broad corrective effect
significantly modified EV proteins with log 2 fold change>0 (ritonavir 20 μM, 24 h): 508/582
overall effect on the DYT-TOR1A MEF EV proteome (ritonavir 20 μM, 24 h, listed as Ritonavir): proteome-wide corrective effects
hierarchical clustering of EV samples on 363 genotype biomarker proteins (ritonavir-treated DYT-TOR1A EV samples): clustered more closely with WT than DYT-TOR1A samples

Reference: patent US20260266848A1, “COMPOSITIONS AND METHODS FOR DIAGNOSING AND TREATING DYSTONIA” (Duke University, priority 2023, published 2026)
